Test results: paper PMC11284788, “NN1213 – A Potent, Long-Acting, and Selective Analog of Human Amylin” (Journal of Medicinal Chemistry, 2024)
Where two headings read alike, the source gives them in different places. Numbered stars: 1 amine (or outer) side, 2 acyl side, 3 side chain; on linkers, the order of the positions; unused ones are H or OH. Bridge positions count the residues as written; N and C are the ends. Peptide text beside a SMILES is read from it. * marks the point of attachment. C20 diacid = O=C(O)CCCCCCCCCCCCCCCCCCC(=O)*; γGlu = O=C(O)[C@H](CCC(=O)[*:2])N[*:1]; AEEA = NCCOCCOCC(=O)O

Columns and labels:
[1] = HMWP content by size-exclusion chromatography; assay type: physicochemical; conditions: analogs 10–21 (pH 4.0 series); covalent dimers and polymers prior to fibril formation testing, SEC, % of total absorbance area at 215 nm
Summary of the method: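 HMWP percentage is the covalent dimer/polymer peak area relative to total absorbance area, with extinction coefficients taken as equal to the main peak. Isocratic size-exclusion elution used 50% (v/v) 2-propanol containing 0.5 M NaCl and phosphate buffer; measured on analogs prior to fibril assays.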

hCTR = biological target: T1, hCTR (Homo sapiens, UniProt P30988); assay: scintillation proximity binding assay, hCTR membranes; parameters: expressed in transfected cells; host or cells: BHK tk-ts 13, transient (FuGENE 6); membranes for the SPA, whole cells for the species-specific assays
T1 sequence (P30988 25-474): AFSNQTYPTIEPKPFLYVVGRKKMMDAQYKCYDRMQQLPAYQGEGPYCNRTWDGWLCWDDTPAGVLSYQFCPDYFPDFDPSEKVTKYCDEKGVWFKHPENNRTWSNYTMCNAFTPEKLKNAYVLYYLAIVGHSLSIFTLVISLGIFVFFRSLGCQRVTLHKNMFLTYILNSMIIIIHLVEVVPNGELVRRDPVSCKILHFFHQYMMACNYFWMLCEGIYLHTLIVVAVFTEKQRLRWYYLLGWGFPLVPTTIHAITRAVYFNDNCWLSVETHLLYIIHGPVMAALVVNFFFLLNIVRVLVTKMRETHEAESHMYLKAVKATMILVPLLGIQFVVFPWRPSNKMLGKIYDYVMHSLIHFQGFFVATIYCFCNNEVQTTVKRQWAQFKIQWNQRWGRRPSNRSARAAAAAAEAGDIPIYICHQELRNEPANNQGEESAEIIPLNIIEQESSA
Protocol: (§1) The apparent binding affinities were determined using a scintillation proximity assay with beads from PerkinElmer and cell membranes containing the AMY3R or CTRs. […] Membranes were harvested and membranes were prepared and kept at −80 °C until use. The assay was performed in a 384-well Optiplate (PerkinElmer). Membranes were mixed with scintillation proximity assay beads in a 1:1 ratio. […] Samples were analyzed on a TopCounter (Packard). The IC50 values were calculated using GraphPad Prism. See Supporting Information S7: SAR Screening Assay Methods (Binding Assays (Human and Rat)) for more information.
(§2) Binding Assays (Human and Rat). Brief descriptions of the methods used to determine binding affinities for SAR analysis are described below. Curves and IC50 values were plotted and calculated in GraphPad Prism using nonlinear regression (one site binding competition analysis), with pIC50 values […]
(§3) values were used to calculate the binding affinity ratios in order to express the selectivity of compounds for the AMY3R versus the CTR.
(§4) CTR Binding Assay. The binding assay was performed using scintillation proximity assay (SPA) beads (RPNQ0001) from PerkinElmer and cell membranes containing either the hCTR or rCTR. BHK […]
(§5) Membranes were prepared in the following way: the cells were rinsed with PBS and incubated with Versene for approximately 5 min before harvesting. The cells were flushed with PBS and the cell-suspension was centrifuged for 5 min at 1000 rpm. Cells were homogenized (Ultra Turrax) in a buffer […]
(§6) containing 20 mM Na-HEPES and 0.1 mM EDTA (pH 7.4, buffer 2). The resulting pellet was re-suspended in buffer 2 and protein concentration was measured (BCA protein assay, Pierce). The homogenate was kept cold during the whole procedure. The membranes were stored at –80 °C until […]
(§7) The binding assay was performed in a 384-well Optiplate (PerkinElmer) in a total volume of 40 μL.
(§8) Membranes were mixed with SPA beads in a 1:1 ratio. […]
(§9) mg/well. Test compounds were dissolved in DMSO and further diluted in assay buffer (50 mM HEPES, pH 7.4, 1 mM CaCl2, 5 mM MgCl2, 0.1% ovalbumin, and 0.02% Tween-20).
(§10) Calcitonin (NEX422 PerkinElmer) was dissolved in assay buffer and added to the Optiplate at a final […]
(§11) prior to centrifugation (1500 rpm, 10 min). Samples were analyzed on TopCounter (Packard).

rat AMY3R = biological target: T2, rat AMY3R (Rattus norvegicus, UniProt P32214+Q9JJ73); assay: cAMP FlashPlate assay, rat AMY3R; assay type: cell-based; conditions: for EC50: cAMP (rat receptor assay)
T2 construct: expressed in transfected cells; host or cells: BHK tk-ts 13, transient co-transfection (FuGENE 6)
T2 sequence (P32214 25-479 isoform P32214-2 limits assumed): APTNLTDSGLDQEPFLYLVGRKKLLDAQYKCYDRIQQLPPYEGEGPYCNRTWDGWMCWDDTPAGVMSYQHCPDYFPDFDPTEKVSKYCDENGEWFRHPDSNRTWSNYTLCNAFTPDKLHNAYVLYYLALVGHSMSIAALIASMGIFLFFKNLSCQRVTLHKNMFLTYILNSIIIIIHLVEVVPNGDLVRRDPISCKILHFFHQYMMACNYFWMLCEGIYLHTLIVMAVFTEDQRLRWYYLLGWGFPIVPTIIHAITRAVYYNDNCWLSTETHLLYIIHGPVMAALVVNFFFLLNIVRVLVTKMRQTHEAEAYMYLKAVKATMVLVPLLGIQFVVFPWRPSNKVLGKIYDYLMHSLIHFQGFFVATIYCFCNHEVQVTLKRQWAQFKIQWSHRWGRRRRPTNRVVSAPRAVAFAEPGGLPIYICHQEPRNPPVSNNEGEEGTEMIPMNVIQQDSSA
T2 sequence (Q9JJ73 23-147 partner): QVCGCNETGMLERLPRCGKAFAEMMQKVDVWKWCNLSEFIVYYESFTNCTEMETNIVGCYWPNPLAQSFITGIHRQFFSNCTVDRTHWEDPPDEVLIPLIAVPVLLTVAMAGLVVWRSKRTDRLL

rCTR = biological target: T3, rCTR (Rattus norvegicus, UniProt P32214); assay: scintillation proximity binding assay, rCTR membranes
T3 construct: expressed in transfected cells; host or cells: BHK tk-ts 13, transient (FuGENE 6)
T3 sequence (P32214 25-479 isoform P32214-2 limits assumed): T2 sequence (P32214 25-479 isoform P32214-2 limits assumed)
Protocol: as §1, §2, §3, §4, §5, §6, §7, §8, §9, §10, §11

[2] = Solubility versus pH profile
rats = assay: Acute food intake in rats; assay type: in vivo, rat; conditions: single sc injection of 30 nmol/kg, relative to vehicle, mean ± SEM, n = 5–7 per group
[3] = bis-tris-propane buffer, pH 6, aqueous buffer
[4] = bis-tris-propane buffer, pH 6.5, aqueous buffer
[5] = bis-tris-propane buffer, pH 7, aqueous buffer
[6] = bis-tris-propane buffer, pH 7.5, aqueous buffer
[7] = bis-tris-propane buffer, pH 8, aqueous buffer
[8] = lactate buffer, pH 4, aqueous buffer
[9] = lactate buffer, pH 5, aqueous buffer

Row | HMWP [1] [%] | IC50 (hCTR; SPA binding assay, Tables S13 and S15, read-out: hCTR pIC50 (converted)) [nM] | IC50 (hCTR; SPA, BHK cell membranes, 125I-Calcitonin 75 pM, 120 min 25 °C, read-out: hCTR IC50) [nM] | EC50 (rat AMY3R; Tables S12 and S14, read-out: rAMY3R pEC50 (converted)) [nM] | EC50 (rat AMY3R; transiently transfected BHK tk-ts 13 cells, FlashPlate, 30 min room temperature, 2% HSA, read-out: rAMY3R EC50) [nM] | ratio rCTR/rAMY3R (rat AMY3R; ratio of cAMP EC50 values) | IC50 (rCTR; SPA binding assay, Tables S13 and S15, read-out: rCTR pIC50 (converted)) [nM] | IC50 (rCTR; SPA, BHK cell membranes, 125I-Calcitonin 75 pM, 120 min 25 °C, read-out: rCTR IC50) [nM] | solubility kinetic [2, 3] [µM] | solubility kinetic [2, 4] [µM] | solubility kinetic [2, 5] [µM] | solubility kinetic [2, 6] [µM] | solubility kinetic [2, 7] [µM] | solubility kinetic [2, 8] [µM] | solubility kinetic [2, 9] [µM] | Compound | Acute food intake reduction 24–48 h (rats) [%]
1 | 1.7 | 14.1 | 14.1 | 0.933 | 0.926 | 18 | 50.1 | 49.8 | ≥ 200 | ≥ 200 | ≥ 200 | ≥ 200 | ≥ 200 | ≥ 200 | ≥ 200 | CC[C@H](C)[C@H](NC(=O)[C@H](C)NC(=O)CNC(=O)[C@H](Cc1ccccc1)NC(=O)[C@H](CC(N)=O)NC(=O)[C@@H]1CCCN1C(=O)[C@H](CO)NC(=O)[C@H](CO)NC(=O)[C@H](Cc1c[nH]cn1)NC(=O)[C@H](CCCNC(=N)N)NC(=O)[C@H](CC(C)C)NC(=O)[C@H](Cc1ccccc1)NC(=O)[C@H](CC(N)=O)NC(=O)[C@H](C)NC(=O)[C@H](CC(C)C)NC(=O)[C@H](CCCNC(=N)N)NC(=O)[C@H](CCC(N)=O)NC(=O)[C@@H](NC(=O)[C@H](C)NC(=O)[C@@H]1CSSC[C@H](NC(=O)[C@H](CCCCN)NC(=O)CC[C@H](NC(=O)CCCCCCCCCCCCCCCCCCC(=O)O)C(=O)O)C(=O)N[C@@H](CC(N)=O)C(=O)N[C@@H]([C@@H](C)O)C(=O)N[C@@H](C)C(=O)N[C@@H]([C@@H](C)O)C(=O)N1)[C@@H](C)O)C(=O)N1CCC[C@H]1C(=O)N[C@@H](CO)C(=O)N[C@@H](CO)C(=O)N[C@H](C(=O)N[C@@H](CC(N)=O)C(=O)N[C@H](C(=O)NCC(=O)N[C@@H](Cc1c[nH]cn1)C(=O)N[C@@H](CC(N)=O)C(=O)N[C@H](C(=O)N[C@@H](Cc1ccc(O)cc1)C(N)=O)[C@@H](C)O)C(C)C)[C@@H](C)O [Peptide 17] | 
2 | 3.5 |  |  |  |  |  |  |  | ≥ 200 | ≥ 200 | ≥ 200 | ≥ 200 | ≥ 200 | ≥ 200 | ≥ 200 | CC[C@H](C)[C@H](NC(=O)[C@H](C)NC(=O)CNC(=O)[C@H](Cc1ccccc1)NC(=O)[C@H](CC(N)=O)NC(=O)[C@@H]1CCCN1C(=O)[C@H](CO)NC(=O)[C@H](CO)NC(=O)[C@H](Cc1c[nH]cn1)NC(=O)[C@H](CCCNC(=N)N)NC(=O)[C@H](CC(C)C)NC(=O)[C@H](Cc1ccccc1)NC(=O)[C@H](CC(N)=O)NC(=O)[C@H](C)NC(=O)[C@H](CC(C)C)NC(=O)[C@H](CCCNC(=N)N)NC(=O)[C@H](CCC(N)=O)NC(=O)[C@@H](NC(=O)[C@H](C)NC(=O)[C@@H]1CSSC[C@H](NC(=O)[C@H](CCCCN)NC(=O)COCCOCCNC(=O)CC[C@H](NC(=O)CCCCCCCCCCCCCCCCCCC(=O)O)C(=O)O)C(=O)N[C@@H](CC(N)=O)C(=O)N[C@@H]([C@@H](C)O)C(=O)N[C@@H](C)C(=O)N[C@@H]([C@@H](C)O)C(=O)N1)[C@@H](C)O)C(=O)N1CCC[C@H]1C(=O)N[C@@H](CO)C(=O)N[C@@H](CO)C(=O)N[C@H](C(=O)N[C@@H](CC(N)=O)C(=O)N[C@H](C(=O)NCC(=O)N[C@@H](CO)C(=O)N[C@@H](Cc1c[nH]cn1)C(=O)N[C@H](C(=O)N[C@@H](Cc1ccc(O)cc1)C(N)=O)[C@@H](C)O)C(C)C)[C@@H](C)O [Peptide 18] ({C20 diacid-γGlu-AEEA}-KCNTATCATQRLANFLRHSSPNFGAIPSSTNVGSHTY-NH2; disulfide 2-7; N-terminus assumed) | 3 ± 6
